Patent US8546391B2, “Thiadiazole and oxadiazole derivatives, preparation thereof and therapeutic use thereof” (Sanofi, priority 2009, dated 2013)
pIC50: −log10 of the molar value.

test system: not given; experiment: not given; settings: not given

SMILES	melting point
O=C(Nc1nnc(COCC2CCCO2)s1)c1ccc(O[C@H]2CC[C@H](C(=O)O)CC2)cc1 (stereo partly drawn) [Compound 82, trans-4-{4-[5-(tetrahydrofuran-2-ylmethoxymethyl)[1,3,4]thiadiazol-2-ylcarbamoyl]-phenoxy}cyclohexanecarboxylic acid]	217 to 223 °C
O=C(O)C[C@H]1CC[C@H](c2ccc(C(=O)Nc3nnc(CCC(=O)c4ccccc4)s3)cc2)CC1 [Compound 83, trans-(4-{4-[5-(3-oxo-3-phenylpropyl)[1,3,4]thiadiazol-2-ylcarbamoyl]phenyl}cyclohexyl)acetic acid]	240 to 268 °C
O=C(O)CC1CCC(c2ccc(C(=O)Nc3nnc(COc4ccccc4)s3)cc2)CC1 (centres unmarked) [Compound 22, {4-[4-(5-phenoxymethyl[1,3,4]thiadiazol-2-ylcarbamoyl)phenyl]cyclohexyl}acetic acid]	261 °C
O=C(Nc1nnc(-c2cccc(Cl)c2)s1)c1ccc([C@H]2CC[C@H]([C@H]3C[C@@H]3C(=O)O)CC2)cc1 [Compound 85, trans-(1S,2R)-2-(4-{4-[5-(3-chlorophenyl)[1,3,4]thiadiazol-2-ylcarbamoyl]phenyl}cyclohexyl)cyclopropanecarboxylic acid]	> 250 °C
O=C(O)C[C@H]1CC[C@H](c2ccc(C(=O)Nc3nnc(CSCc4ccccc4)s3)cc2)CC1 [Compound 96, trans-{4-[4-(5-benzylsulfanylmethyl[1,3,4]thiadiazol-2-ylcarbamoyl)phenyl]cyclohexyl}-acetic acid]	234 °C
O=C(O)C[C@H]1CC[C@H](Oc2ccc(C(=O)Nc3nnc(Cc4ccccc4)s3)cc2)CC1 [Compound 81, trans-{4-[4-(5-benzyl[1,3,4]thiadiazol-2-ylcarbamoyl)phenoxy]cyclohexyl}acetic acid]	230 to 250 °C
O=C(O)CC1CCC(c2ccc(C(=O)Nc3nnc(C4CCCC4)s3)cc2)CC1 (centres unmarked) [Compound 16, {4-[4-(5-cyclopentyl[1,3,4]thiadiazol-2-ylcarbamoyl)phenyl]cyclohexyl}acetic acid]	274 °C
O=C(O)CC1CCC(c2ccc(C(=O)Nc3nnc(CCCc4ccc(F)cc4)s3)cc2)CC1 (centres unmarked) [Compound 23, [4-(4-{5-[3-(4-fluorophenyl)propyl][1,3,4]thiadiazol-2-ylcarbamoyl}phenyl)cyclohexyl]-acetic acid]	229 °C
O=C(CCc1nnc(NC(=O)c2ccc(O[C@H]3CC[C@@H](C(=O)O)CC3)cc2)s1)c1ccccc1 [Compound 102, cis-4-{4-[5-(3-oxo-3-phenylpropyl)[1,3,4]thiadiazol-2-ylcarbamoyl]phenoxy}cyclohexanecarboxylic acid]	220 to 260 °C
O=C(O)C[C@H]1CC[C@H](c2ccc(C(=O)Nc3nnc(COCC4CCCC4)s3)cc2)CC1 [Compound 40, trans-{4-[4-(5-cyclopentylmethoxymethyl[1,3,4]thiadiazol-2-ylcarbamoyl)phenyl]cyclohexyl}acetic acid]	241 °C
O=C(C[C@H]1CC[C@H](c2ccc(C(=O)Nc3nnc(Cc4ccccc4)s3)cc2)CC1)NCC1COCCO1 (stereo partly drawn) [Compound 93, trans-N-(5-benzyl[1,3,4]thiadiazol-2-yl)-4-(4-{[([1,4]dioxan-2-ylmethyl)carbamoyl]-methyl}cyclohexyl)benzamide]	281 °C
O=C(Nc1nnc(Cc2ccccc2)s1)c1ccc(C2CCC3(CC2)CC3C(=O)O)cc1 (centres unmarked) [Compound 43, 6-[4-(5-benzyl[1.3.4]thiadiazol-2-ylcarbamoyl)phenyl]spiro[2.5]-octane-1-carboxylic acid]	255 °C
O=C(O)C[C@H]1CC[C@H](c2ccc(C(=O)Nc3nnc(NC(=O)Cc4ccccc4)s3)cc2)CC1 [Compound 76, {4-[4-(5-phenylacetylamino[1,3,4]thiadiazol-2-ylcarbamoyl)phenyl]cyclohexyl}acetic acid]	291 °C
O=C(O)C[C@H]1CC[C@H](c2ccc(C(=O)Nc3nnc(NC4CCCC4)s3)cc2)CC1 [Compound 92, trans-{4-[4-(5-cyclopentylamino[1,3,4]thiadiazol-2-ylcarbamoyl)phenyl]cyclohexyl}-acetic acid]	335 °C
O=C(O)C=C1CCC(c2ccc(C(=O)Nc3nnc(Cc4ccccc4)s3)cc2)CC1 (centres unmarked) [Compound 42, {4-[4-(5-benzyl[1,3,4]thiadiazol-2-ylcarbamoyl)phenyl]cyclohexylidene}acetic acid]	255 °C
O=C(O)C[C@H]1CC[C@H](c2ccc(C(=O)Nc3nnc(CCC(O)c4ccccc4)s3)cc2)CC1 (some centres unmarked) [Compound 84, (4-{4-[5-(3-hydroxy-3-phenylpropyl)[1.3.4]thiadiazol-2-ylcarbamoyl]-phenyl}cyclohexyl)acetic acid]	239 to 242 °C

test system: triglyceride biosynthesis; experiment: in vitro inhibitory activity on triglyceride biosynthesis, cell test ([14C] glycerol incorporation in Chang liver cells); assay type: cell-based; settings: compounds incubated 30 minutes, then [14C] glycerol incorporation for 6 hours, read-out: inhibitory activity on triglyceride biosynthesis, concentration that inhibits 50% of the activity
Description: These trials consisted in measuring the in vitro inhibitory activity of the compounds of the invention on a cell test.
Chang liver cells at 80% confluence are detached with trypsin-EDTA, 4 ml per 175 cm^2 flask. After centrifugation at 1300×g for 5 minutes, the cell pellet is washed once with PBS and then resuspended in whole medium. The number of cells and their viability are determined on Mallassez cells via the exclusion method with trypan blue.
150 000 cells are inoculated per well into a 24-well plate for a minimum of 3 hours in DMEM medium 4.5 g/l of glucose supplemented with 10% FCS and with antibiotics, and are maintained at 37° C. in an incubator with CO2 (5%).
After 3 hours, the cells have adhered, the medium is removed and replaced overnight with DMEM medium 4.5 g/l of glucose with 2% of BSA/oleate.
After culturing for 18 hours without serum, the test compounds are incubated for 30 minutes ([…], 30, 100, 300 and 1000 nM) with the cells, followed by addition of [^14C] glycerol (0.4 μCi/ml/well) for an incorporation time of 6 hours.
The supernatant is drawn off and the cells are recovered by treatment with trypsin-EDTA, 100 μl/well, for 5 minutes at 37° C. This cell suspension is then recovered in an Eppendorf tube and is washed with twice 500 μl of PBS. The centrifugation at 1300×g for 5 minutes allows recovery of the cell pellets, which may be frozen at −20° C. In order to extract the lipids from the cell pellet, 400 μl of a methanol/dichloromethane/trifluoroacetic acid mixture (50/50/0.1%) is used to resuspend the cells. Next, the cell membranes are destroyed by sonication on a water bath, for 30 minutes. The samples are filtered through a 0.45 μm filtered and then injected onto a C18 HPLC column of 4.6×75 mm, 3 μm with a mobile phase of 5% (H2O+0.1% TFA), 70% methanol, 25% dichloromethane, with a flow rate of 1.5 ml/minute. The radioactivity is measured using a Flo One C625TR machine (Perkin-Elmer).
The inhibitory activity on triglyceride biosynthesis is given by the concentration that inhibits 50% of the activity.

SMILES	pIC50
O=C(Nc1nnc(Cc2ccccc2)s1)c1ccc(N[C@H]2CC[C@@H](C(=O)O)CC2)cc1 [Compound 68, cis-4-[4-(5-benzyl[1.3.4]thiadiazol-2-ylcarbamoyl)phenylamino]cyclohexanecarboxylic acid]	6.57
O=C(Nc1nnc(Cc2cccc(Cl)c2)s1)c1ccc(O[C@H]2CC[C@@H](C(=O)O)CC2)nc1 [Compound 63, cis-4-{5-[5-(3-chlorobenzyl)[1.3.4]thiadiazol-2-ylcarbamoyl]pyridin-2-yloxy}cyclohexanecarboxylic acid]	7.07
O=C(O)C[C@H]1CC[C@H](c2ccc(C(=O)Nc3nnc(COC4CCCC4)s3)cc2)CC1 [Compound 37, trans-{4-[4-(5-cyclopentyloxymethyl[1.3.4]thiadiazol-2-ylcarbamoyl)-phenyl]cyclohexyl}acetic acid]	7.74
O=C(O)C[C@H]1CC[C@H](c2ccc(C(=O)Nc3nnc(COCC4CCCC4)s3)cc2)CC1 [Compound 40, trans-{4-[4-(5-cyclopentylmethoxymethyl[1,3,4]thiadiazol-2-ylcarbamoyl)phenyl]cyclohexyl}acetic acid]	7.29
